Reference: US20230102554A1 (GB002, INC., priority 2019, published 2023)

Experiments:
[1] = target: T1, Human PDGFRα, cytoplasmic domain (GST-PDGFRα) (Homo sapiens, UniProt P16234); assay: Human PDGFRα biochemical inhibition assay (off-chip Mobility Shift Assay)
T1 construct: made in house

[2] = target: T2, Human PDGFRβ, cytoplasmic domain (GST-PDGFRβ) (Homo sapiens, UniProt P09619); assay: Human PDGFRβ biochemical inhibition assay (off-chip Mobility Shift Assay)
T2 construct: made in house
In short: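 GST-tagged cytoplasmic domain (aa 557-1106) from baculovirus was incubated 1 h at room temperature with compound, CSKtide, ATP at Km and Mg²⁺ in HEPES buffer, pH 7.5. Phosphorylated and unphosphorylated peptide were separated by off-chip mobility shift, and the product ratio P/(P+S) gave percent inhibition.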

T2 sequence (P09619 with tags, fused parts or gaps): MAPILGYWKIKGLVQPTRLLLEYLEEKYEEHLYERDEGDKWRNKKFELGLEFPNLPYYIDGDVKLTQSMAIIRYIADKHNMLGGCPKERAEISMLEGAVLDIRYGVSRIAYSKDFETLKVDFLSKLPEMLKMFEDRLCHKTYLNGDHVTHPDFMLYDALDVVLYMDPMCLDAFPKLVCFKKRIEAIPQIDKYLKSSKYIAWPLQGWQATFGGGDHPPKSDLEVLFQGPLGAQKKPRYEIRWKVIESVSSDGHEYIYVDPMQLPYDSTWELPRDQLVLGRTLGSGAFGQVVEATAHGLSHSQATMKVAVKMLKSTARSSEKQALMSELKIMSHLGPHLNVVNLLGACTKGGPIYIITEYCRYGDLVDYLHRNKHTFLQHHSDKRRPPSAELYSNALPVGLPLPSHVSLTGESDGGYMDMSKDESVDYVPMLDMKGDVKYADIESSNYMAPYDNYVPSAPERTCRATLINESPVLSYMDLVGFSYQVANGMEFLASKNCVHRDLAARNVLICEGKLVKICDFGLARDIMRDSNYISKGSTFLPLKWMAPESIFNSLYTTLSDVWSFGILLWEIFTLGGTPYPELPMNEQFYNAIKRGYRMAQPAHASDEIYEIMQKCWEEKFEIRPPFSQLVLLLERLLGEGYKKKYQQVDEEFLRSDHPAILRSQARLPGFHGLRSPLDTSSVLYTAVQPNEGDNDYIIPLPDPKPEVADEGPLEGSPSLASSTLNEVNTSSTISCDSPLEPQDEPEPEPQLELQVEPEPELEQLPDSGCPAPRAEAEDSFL
T1 sequence (P16234 550-1089 T674I): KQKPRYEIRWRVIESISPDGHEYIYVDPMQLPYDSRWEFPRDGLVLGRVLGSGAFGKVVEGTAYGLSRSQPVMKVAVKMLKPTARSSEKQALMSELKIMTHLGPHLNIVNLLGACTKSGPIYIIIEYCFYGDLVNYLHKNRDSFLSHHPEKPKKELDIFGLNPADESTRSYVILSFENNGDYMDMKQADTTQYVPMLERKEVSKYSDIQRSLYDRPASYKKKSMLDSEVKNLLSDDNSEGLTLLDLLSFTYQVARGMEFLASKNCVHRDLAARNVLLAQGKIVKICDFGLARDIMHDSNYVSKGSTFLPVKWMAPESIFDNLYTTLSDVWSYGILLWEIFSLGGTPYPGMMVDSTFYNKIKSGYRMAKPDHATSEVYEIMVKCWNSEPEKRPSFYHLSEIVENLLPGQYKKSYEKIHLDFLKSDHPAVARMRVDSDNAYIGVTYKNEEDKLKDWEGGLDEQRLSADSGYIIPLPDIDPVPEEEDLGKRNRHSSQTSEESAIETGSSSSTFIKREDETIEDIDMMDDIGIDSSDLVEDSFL

IC50 [1] | IC50 [2] | Structure (SMILES)
< 0.3 µM | < 0.3 µM | CCn1ncc2ncc(N[C@@H](C)c3cccc(NC(=O)c4cncc(C)c4)c3)nc21 [Compound 176, (S)-N-(3-(1-((1-ethyl-1H-pyrazolo[3,4-b]pyrazin-6-yl)amino)ethyl)phenyl)-5-methylnicotinamide]
< 0.3 µM | < 0.3 µM | Cc1cncc(C(=O)Nc2cccc([C@H](C)Nc3cnc4cc(C)oc4c3)c2)c1 [Compound 22, (S)-5-methyl-N-(3-(1-((2-methylfuro[3,2-b]pyridin-6-yl)amino)ethyl)phenyl)nicotinamide]
< 0.3 µM | < 0.3 µM | CCn1cc2ncc(N[C@@H](C)c3cccc(NC(=O)c4ccc(N(C)C)c(C)c4)c3)nc2n1 [Compound 384, (S)-4-(dimethylamino)-N-(3-(1-((2-ethyl-2H-pyrazolo[3,4-b]pyrazin-6-yl)amino)ethyl)phenyl)-3-methylbenzamide]
≥ 1 µM | ≥ 1 µM | CCn1cc2ncc(N[C@@H](C)c3cccc(NC(=O)c4cnc(OC)s4)c3)nc2n1 [Compound 325, (S)-N-(3-(1-((2-ethyl-2H-pyrazolo[3,4-b]pyrazin-6-yl)amino)ethyl)phenyl)-2-methoxythiazole-5-carboxamide]
< 0.3 µM | < 0.3 µM | CCn1cc2ncc(N[C@@H](C)c3cc(NC(=O)c4cnc(OCC5CC5)c(C)c4)ccc3F)nc2n1 [Compound 318, (S)-6-(cyclopropylmethoxy)-N-(3-(1-((2-ethyl-2H-pyrazolo[3,4-b]pyrazin-6-yl)amino)ethyl)-4-fluorophenyl)-5-methylnicotinamide]
< 0.3 µM | < 0.3 µM | CSc1ncc(C(=O)Nc2cccc([C@H](C)Nc3cnc4cnn(C)c4n3)c2)cc1C [Compound 223, (S)-5-methyl-N-(3-(1-((1-methyl-1H-pyrazolo[3,4-b]pyrazin-6-yl)amino)ethyl)phenyl)-6-(methylthio)nicotinamide]
< 0.3 µM | < 0.3 µM | CCn1cc2ncc(N[C@@H](C)c3cccc(NC(=O)c4cnc(C(F)(F)F)s4)c3)nc2n1 [Compound 295, (S)-N-(3-(1-((2-ethyl-2H-pyrazolo[3,4-b]pyrazin-6-yl)amino)ethyl)phenyl)-2-(trifluoromethyl)thiazole-5-carboxamide]
< 0.3 µM | < 0.3 µM | C[C@H](Nc1cnc2cnn(C)c2n1)c1cccc(NC(=O)c2cncc(Cl)c2)c1 [Compound 109, (S)-5-chloro-N-(3-(1-((1-methyl-1H-pyrazolo[3,4-b]pyrazin-6-yl)amino)ethyl)phenyl)nicotinamide]
< 0.3 µM | < 0.3 µM | CCn1cc2ncc(N[C@@H](C)c3cccc(NC(=O)c4cnn(C(C)C)c4)c3)nc2n1 [Compound 301, (S)-N-(3-(1-((2-ethyl-2H-pyrazolo[3,4-b]pyrazin-6-yl)amino)ethyl)phenyl)-1-isopropyl-1H-pyrazole-4-carboxamide]
< 0.3 µM | ≥ 1 µM | CCn1cc2ncc(N[C@@H](C)c3cccc(NC(=O)Cc4ccc5c(n4)CCCC5)c3)nc2n1 [Compound 723, (S)-N-(3-(1-((2-ethyl-2H-pyrazolo[3,4-b]pyrazin-6-yl)amino)ethyl)phenyl)-2-(5,6,7,8-tetrahydroquinolin-2-yl) acetamide]
< 0.3 µM | < 0.3 µM | C[C@H](Nc1cnc2cnn(C)c2n1)c1cccc(NC(=O)c2cncc(C3CC3)c2)c1 [Compound 105, (S)-5-cyclopropyl-N-(3-(1-((1-methyl-1H-pyrazolo[3,4-b]pyrazin-6-yl)amino)ethyl)phenyl)nicotinamide]
< 0.3 µM | 0.3 to 1 µM | CCn1cc2ncc(N[C@@H](C)c3cccc(NC(=O)Cc4cccc(F)c4)c3)nc2n1 [Compound 625, (S)-N-(3-(1-((2-ethyl-2H-pyrazolo[3,4-b]pyrazin-6-yl)amino)ethyl)phenyl)-2-(3-fluorophenyl)acetamide]
